From PMC3532118, “A Novel Muscarinic Antagonist R2HBJJ Inhibits Non-Small Cell Lung Cancer Cell Growth and Arrests the Cell Cycle in G0/G1” (PLoS ONE, 2012)
Where two headings read alike, the source gives them in different places.

Key:
[1] = test system: H1299 cells; experiment: Cell viability assay (SRB), H1299; type: cell-based, human
Experimental: (§3) Cells were seeded at a density of 6.0×10^3 cells/well in 96-well plates. […] The inhibitory effects of the antagonists on cell growth were determined using SRB assay, as described previously [37]. […] Each experiment was performed in six replicates and repeated for three times. Cells treated with solvent (DMSO) were used as a control, with viability set at 100%.

[2] = test system: H1299 cells; experiment: Cell cycle analysis by flow cytometry, H1299; type: cell-based, human; details: H1299, 20 µM
Experimental: Alterations in cell cycle were determined by using flow cytometric assay. Cells were seeded at a density of 1×10^5 cells/well in six-well plates and synchronized by plating in RPMI-1640 containing 1% FBS for 24 h. For time-dependent response, cells were incubated in 2 ml fresh RPMI-1640 containing 10% FBS with 20 µM R2HBJJ for 24, 48, 72 h. For concentration-dependent response, cells were incubated for 48 h with R2HBJJ at final concentrations of 2.5, 5, 10, 15, 20 µM in 2 ml fresh RPMI-1640 containing 10% FBS. Fresh media added in the control well simultaneously. After treatment, the cells were harvested with trypsin, washed once with PBS, and then fixed in 70% ethanol overnight at 4°C. Before flow cytometry analysis, cells were stained with 200 µg/ml Ribonuclease A and 50 µg/ml propidium iodide (Sigma) for 30 min at room temperature away from light. 1×10^4 cells per sample were analyzed using a FACSCalibur flow cytometer (BD Biosciences). Data were evaluated using Modfit software.

[3] = test system: H460 cells; experiment: Cell viability assay (SRB), H460; type: cell-based; details: Homo sapiens, NCI-H460, read-out: 50% growth-inhibitory concentration (GI50), H460, 72 h
Experimental: as §3

[4] = test system: BEP2D cells; experiment: Cell viability assay (SRB), BEP2D; type: cell-based; details: Homo sapiens, read-out: 50% growth-inhibitory concentration (GI50), 72 h, 100 µM highest concentration tested
Experimental: as §3

[5] = molecular target: T1, human muscarinic receptor M2 (Homo sapiens, UniProt P08172); experiment: Radioligand binding assay with [3H]NMS (saturation and competition), M2; details: mean ± SD
T1 construct: purchased Perkin Elmer Life and Analytical Sciences
T1 sequence (P08172 whole entry): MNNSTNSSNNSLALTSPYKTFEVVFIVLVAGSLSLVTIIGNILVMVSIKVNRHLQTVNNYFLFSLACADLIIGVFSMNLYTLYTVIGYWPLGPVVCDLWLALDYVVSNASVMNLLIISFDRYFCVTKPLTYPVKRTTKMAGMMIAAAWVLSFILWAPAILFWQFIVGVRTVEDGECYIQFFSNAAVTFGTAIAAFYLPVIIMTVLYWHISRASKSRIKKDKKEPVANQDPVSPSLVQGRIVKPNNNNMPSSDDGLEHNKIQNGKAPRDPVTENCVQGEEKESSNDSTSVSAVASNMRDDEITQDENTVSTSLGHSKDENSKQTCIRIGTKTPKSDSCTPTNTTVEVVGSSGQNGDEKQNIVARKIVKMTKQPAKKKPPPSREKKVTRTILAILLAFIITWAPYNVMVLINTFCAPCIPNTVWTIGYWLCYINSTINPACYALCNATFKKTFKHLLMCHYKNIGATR
Experimental: (§1) Bound radioligand was separated from free by rapid vacuum filtration through GF/C glass fiber filters (Whatman). The filters were rinsed three times with ice cold PBS. After being dried, the fibers were placed in scintillation vials with 0.5 ml of BetaPlate Scint. Radioactivity trapped on the filters was quantified by a BECKMAN Beta counter. The assay was repeated three times with duplicate samples.
(§2) GraphPad Prism 5 software was used for statistical analysis. For competition binding and Guinea-pig tracheal contraction assay, the IC50 values were determined by using the non-linear curve-fitting program. The inhibition constants (Ki values) were calculated by using the Cheng-Prusoff equation. For the experiments of exogenous ACh combined with R2HBJJ, two-way ANOVA was used to compare the interaction of two treatment factors. Post-hoc analyses were performed with Bonferroni's tests for comparisons to controls. For the cell viability assay after siRNA transfection, one-way ANOVA followed by Dunnett's t test was used. A P value of less than 0.05 was considered statistically significant.

[6] = test system: H157 cells; experiment: Cell viability assay (SRB), H157; type: cell-based; details: Homo sapiens, NCI-H157, read-out: 50% growth-inhibitory concentration (GI50), H157, 72 h
Experimental: as §3

[7] = test system: H1299 cells; experiment: cells
Experimental: as §2

[8] = test system: H1299 cells; experiment: Exogenous ACh combined with R2HBJJ, cell viability (SRB)
Experimental: To determine the correlation between cholinergic signal pathways and R2HBJJ-induced growth inhibition, exogenous AChR agonist ACh was used. The effects of ACh on the growth of H1299 and on R2HBJJ-induced growth inhibition were observed.
Cells were seeded at a density of 6.0×10^3 cells/well in 96-well plates. After overnight incubation, the cells were treated with R2HBJJ (1.6–100 µM) or other antagonists (0.3–100 µM) for 72 h. The inhibitory effects of the antagonists on cell growth were determined using SRB assay, as described previously. For the combination administration, the agonist was added 1 h before R2HBJJ. Each experiment was performed in six replicates and repeated for three times. Cells treated with solvent (DMSO) were used as a control, with viability set at 100%.
as §2

[9] = molecular target: T2, human muscarinic receptor M4 (Homo sapiens, UniProt P08173); experiment: biochemical; type: binding; details: mean ± SD
T2 construct: purchased Perkin Elmer Life and Analytical Sciences
T2 sequence (P08173 whole entry): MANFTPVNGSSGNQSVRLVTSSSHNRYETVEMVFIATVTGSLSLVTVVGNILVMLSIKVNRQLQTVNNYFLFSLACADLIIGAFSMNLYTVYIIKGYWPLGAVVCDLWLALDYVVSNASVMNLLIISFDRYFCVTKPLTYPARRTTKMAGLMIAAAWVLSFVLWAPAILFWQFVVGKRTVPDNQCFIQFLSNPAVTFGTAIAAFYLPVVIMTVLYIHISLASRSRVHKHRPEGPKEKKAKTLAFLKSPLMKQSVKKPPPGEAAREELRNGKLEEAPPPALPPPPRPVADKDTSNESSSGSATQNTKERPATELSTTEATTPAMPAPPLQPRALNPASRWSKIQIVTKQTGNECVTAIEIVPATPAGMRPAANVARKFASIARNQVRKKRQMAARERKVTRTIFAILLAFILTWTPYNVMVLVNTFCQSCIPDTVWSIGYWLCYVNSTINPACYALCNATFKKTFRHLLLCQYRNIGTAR
Experimental: as §1
as §2, with “used.” for “used. A P value of less than 0.05 was considered statistically significant.”

[10] = molecular target: human muscarinic receptor M3 (Homo sapiens, UniProt P20309); experiment: biochemical
human muscarinic receptor M3, sequence (P20309 whole entry): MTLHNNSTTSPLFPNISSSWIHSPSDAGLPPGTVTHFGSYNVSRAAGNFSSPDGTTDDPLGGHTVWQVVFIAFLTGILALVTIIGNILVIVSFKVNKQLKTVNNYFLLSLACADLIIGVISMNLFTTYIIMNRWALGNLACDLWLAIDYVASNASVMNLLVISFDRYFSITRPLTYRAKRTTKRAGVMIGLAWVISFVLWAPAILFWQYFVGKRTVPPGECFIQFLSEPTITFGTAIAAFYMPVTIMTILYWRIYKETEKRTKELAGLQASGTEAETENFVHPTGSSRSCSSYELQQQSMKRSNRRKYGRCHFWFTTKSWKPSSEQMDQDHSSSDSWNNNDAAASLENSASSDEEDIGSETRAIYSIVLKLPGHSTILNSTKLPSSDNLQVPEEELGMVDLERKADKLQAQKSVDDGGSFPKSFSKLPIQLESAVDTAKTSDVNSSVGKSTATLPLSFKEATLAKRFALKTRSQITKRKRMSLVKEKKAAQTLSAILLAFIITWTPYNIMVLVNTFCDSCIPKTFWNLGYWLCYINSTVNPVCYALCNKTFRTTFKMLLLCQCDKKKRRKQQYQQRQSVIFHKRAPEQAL
Experimental: as §1, §2

[11] = molecular target: human muscarinic receptor M1 (Homo sapiens, UniProt P11229); experiment: biochemical
human muscarinic receptor M1, sequence (P11229 whole entry): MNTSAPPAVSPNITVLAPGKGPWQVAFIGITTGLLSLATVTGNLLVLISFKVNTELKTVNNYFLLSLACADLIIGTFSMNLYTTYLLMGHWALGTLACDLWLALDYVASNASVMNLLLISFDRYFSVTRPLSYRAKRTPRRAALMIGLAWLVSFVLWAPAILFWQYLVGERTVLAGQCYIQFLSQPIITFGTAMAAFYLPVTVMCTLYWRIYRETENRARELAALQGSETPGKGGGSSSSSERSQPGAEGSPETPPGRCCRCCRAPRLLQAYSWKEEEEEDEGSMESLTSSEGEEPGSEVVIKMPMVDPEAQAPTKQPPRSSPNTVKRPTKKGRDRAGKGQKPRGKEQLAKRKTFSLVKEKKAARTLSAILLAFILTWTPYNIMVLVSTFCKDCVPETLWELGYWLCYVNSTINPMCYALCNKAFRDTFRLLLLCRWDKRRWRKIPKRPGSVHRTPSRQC
Experimental: as §1, §2

[12] = molecular target: T3, human muscarinic receptor M5 (Homo sapiens, UniProt P08912); experiment: Radioligand binding assay with [3H]NMS (saturation and competition), M5; details: mean ± SD
T3 construct: purchased Perkin Elmer Life and Analytical Sciences
T3 sequence (P08912 whole entry): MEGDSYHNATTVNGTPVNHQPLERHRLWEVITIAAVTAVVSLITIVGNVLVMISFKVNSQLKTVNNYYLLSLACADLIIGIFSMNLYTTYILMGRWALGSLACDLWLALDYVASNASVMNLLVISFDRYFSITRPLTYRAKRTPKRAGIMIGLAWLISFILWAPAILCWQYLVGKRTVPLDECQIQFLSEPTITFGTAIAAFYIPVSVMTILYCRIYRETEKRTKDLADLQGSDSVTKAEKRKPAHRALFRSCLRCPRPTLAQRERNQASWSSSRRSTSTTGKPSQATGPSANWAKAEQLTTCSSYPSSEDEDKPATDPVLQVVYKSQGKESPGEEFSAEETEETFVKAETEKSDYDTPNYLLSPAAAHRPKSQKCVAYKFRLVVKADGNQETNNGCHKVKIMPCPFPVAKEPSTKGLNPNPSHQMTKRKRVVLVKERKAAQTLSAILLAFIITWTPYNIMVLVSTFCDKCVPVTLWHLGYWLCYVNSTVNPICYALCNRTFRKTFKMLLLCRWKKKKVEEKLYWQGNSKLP
Experimental: as §1, §2

[13] = test system: A549 cells; experiment: Cell viability assay (SRB), A549; type: cell-based; details: Homo sapiens, read-out: 50% growth-inhibitory concentration (GI50), A549, 72 h, 100 µM highest concentration tested
Experimental: as §3

[14] = test system: cyclin D1-CDK4/6-Rb in H1299 cells; experiment: Western blot of cell cycle regulatory proteins and Rb phosphorylation; type: cell-based, human
Experimental: Cell cycle transition from G1 to S is mainly activated by two different kinase composites: cyclin D1/CDK4, 6, and cyclin E, A/CDK2. Rb is the primary substrate of cyclin D-dependent kinase and plays a key role in the network of cell cycle regulation. To investigate the underlying molecular mechanisms of G0/G1 arrest induced by R2HBJJ, the time-dependent changes of several related cell cycle regulatory molecules were evaluated after treatment with 20 µM R2HBJJ in H1299 cells by using western blot analysis. […] The decrease of Rb phosphorylated at the position of Ser^807/811 occurred as early as 3 h after treatment and before apparent cell viability change. […] Further we evaluated the concentration response of Rb phosphorylation reduced after treatment with R2HBJJ for 48 h (Fig. 8B).
Cells were harvested and subjected to lysis in the buffer X (50 mM Tris, 270 mM NaCl, 1% Triton X-100, pH 7.4). Equal amounts of lysates (30 µg) were separated on 10% SDS-PAGE and then transferred to polyvinylidene difluoride membranes (Millipore). Membranes were then blocked with PBS buffer containing 5% low fat milk and 0.1% Tween 20 (PBST) for 1 h at room temperature and then incubated with primary antibodies (1∶1000–2000) overnight at 4°C. After being washed three times with PBST, membranes were incubated with peroxidase-conjugated secondary antibodies (1∶5000) for 1 h at room temperature. The membranes were washed with PBST again and developed with a pro-light HRP chemiluminescence detection kit (TianGen Biotech, China). β-actin was used as a loading control.

[15] = H1299, 72 h, SRB, antagonists 0.3–100 µM, no exogenous agonist
[16] = 2.4 nM [3H]NMS, n = 3, read-out: IC50 inhibiting [3H]NMS binding
[17] = Cheng-Prusoff, n = 3, read-out: Ki inhibiting [3H]NMS binding
[18] = Homo sapiens, NCI-H1299, 72 h, read-out: cell viability

Compound: NC(=O)C(c1ccccc1)(c1ccccc1)[C@@H]1CCN(CCc2ccc3c(c2)CCO3)C1 [darifenacin]
- effect on H1299 cell proliferation [1, 15]: significantly inhibited H1299 cell proliferation in a concentration-dependent manner

Compound: O[C@@](CO[C@H]1CN2CCC1CC2)(c1ccccc1)C1CCCC1 [R2-PHC]
- inhibitory potency relative to darifenacin ([1]; H1299, 72 h, SRB): about 3.7 fold
- effect on H1299 cell proliferation [1, 15]: significantly inhibited H1299 cell proliferation in a concentration-dependent manner

Compound: Br.CO[C@H]1CC=C2CCN3CCC4=C(CC(=O)OC4)[C@]23C1 [DhβE, Dihydro-β-erythroidine hydrobromide]
- effect on H1299 cell proliferation [1, 15]: no obvious effects on cell proliferation

Compound: CN1[C@@H]2CC[C@H]1C[C@@H](OC(=O)C(CO)c1ccccc1)C2 (stereo partly drawn) [atropine]
- effect on H1299 cell proliferation [1]: no obvious effects on cell proliferation

Compound: O[C@@](CO[C@H]1C[N+]2(C3CC3)CCC1CC2)(c1ccccc1)C1CCCC1 [R2HBJJ]
- percentage of G0/G1 phase ([2]; 48 h (Fig. 7B, concentration series), control 39.60%): 70.01%
- percentage of G0/G1 phase ([2]; 72 h (Fig. 7A), control 40.35%): 76.60%
- percentage of S phase ([2]; 72 h (Fig. 7A), control 46.14%): 15.93%
- GI50 [3]: 8800 nM
- GI50 [4]: > 100000 nM
- IC50 [5, 16]: 5.33 nM
- Ki [5, 17]: 1.33 nM
- GI50 [6]: 28500 nM
- inhibitory potency relative to darifenacin ([1]; H1299, 72 h, SRB): about 3.7 fold
- effect on H1299 cell proliferation [1, 15]: significantly inhibited H1299 cell proliferation in a concentration-dependent manner
- GI50 ([1]; Homo sapiens, NCI-H1299, read-out: 50% growth-inhibitory concentration (GI50), H1299, 72 h, SRB): 8500 nM
- viability at 8 µM [7, 18]: 83.5%
- viability at 16 µM [7, 18]: 57.4%
- effect on cell growth after M3 siRNA transfection ([7]; M3 siRNA treated H1299 cells, R2HBJJ 8 µM and 16 µM, 72 h): didn't further influence the cell growth
- viability at 10 µM ([8]; Homo sapiens, NCI-H1299, 72 h, read-out: cell viability, R2HBJJ 10 µM, ACh 0 µM, H1299, 72 h): 54.1 ± 3.89%
- viability at 20 µM ([8]; Homo sapiens, NCI-H1299, 72 h, read-out: cell viability, R2HBJJ 20 µM, ACh 0 µM, H1299, 72 h): 23.2 ± 2.14%
- viability at 10 µM ([8]; Homo sapiens, NCI-H1299, read-out: cell viability, R2HBJJ 10 µM, ACh 1 µM added 1 h before, H1299, 72 h): 55 ± 6.79%
- viability at 10 µM ([8]; Homo sapiens, NCI-H1299, read-out: cell viability, R2HBJJ 10 µM, ACh 10 µM added 1 h before, H1299, 72 h): 82.3 ± 5.82%
- viability at 10 µM ([8]; Homo sapiens, NCI-H1299, read-out: cell viability, R2HBJJ 10 µM, ACh 100 µM added 1 h before, H1299, 72 h): 91.1 ± 3.65%
- viability at 20 µM ([8]; Homo sapiens, NCI-H1299, read-out: cell viability, R2HBJJ 20 µM, ACh 1 µM added 1 h before, H1299, 72 h): 24.1 ± 1.94%
- viability at 20 µM ([8]; Homo sapiens, NCI-H1299, read-out: cell viability, R2HBJJ 20 µM, ACh 10 µM added 1 h before, H1299, 72 h): 35.6 ± 4.48%
- viability at 20 µM ([8]; Homo sapiens, NCI-H1299, read-out: cell viability, R2HBJJ 20 µM, ACh 100 µM added 1 h before, H1299, 72 h): 58.5 ± 2.83%
- IC50 [9, 16]: 1.47 nM
- Ki [9, 17]: 0.106 nM
- IC50 [10]: 0.38 nM
- Ki [10]: 0.0679 nM
- IC50 [11]: 0.739 nM
- Ki [11]: 0.0786 nM
- IC50 [12, 16]: 1.61 nM
- Ki [12, 17]: 0.264 nM
- GI50 [13]: > 100000 nM
- levels of cyclin D1, CDK4 and CDK6 proteins ([14]; H1299, 20 µM, 3–60 h): dramatic down-regulation
- levels of cyclin E and CDK2 ([14]; H1299, 20 µM, 3–60 h): remained basically unaltered
- phosphorylation of Rb (particularly at Ser807/811) ([14]; H1299, 20 µM, 3–60 h): decreased time-dependently
- lowest concentration at which decrease of Rb phosphorylated at Ser807/811 occurred ([14]; H1299, 48 h, 1.25–20 µM tested): 1.25 µM

Compound: CN1CCN(CC(=O)N2c3ccccc3C(=O)Nc3cccnc32)CC1 [pirenzepine]
- effect on H1299 cell proliferation [1, 15]: no obvious effects on cell proliferation

Compound: CCN(CC)CC1CCCCN1CC(=O)N1c2ccccc2C(=O)Nc2cccnc21 (stereo not drawn) [AF-DX116]
- effect on H1299 cell proliferation [1, 15]: inhibition on cell proliferation at the highest concentration tested

Compound: CNC1(C)C2CCC(C2)C1(C)C (stereo not drawn) [mecamylamine]
- effect on H1299 cell proliferation [1, 15]: no obvious effects on cell proliferation

Compound: CC(=O)OCC[N+](C)(C)C [ACh, Acetylcholine, reference compound]
- effect of exogenous ACh alone on H1299 cell growth ([8]; ACh 1, 10 and 100 µM, 72 h): no significant effects on H1299 cell growth
- viability at 1 µM [8, 18]: 102 ± 1.8%
- viability at 10 µM [8, 18]: 105 ± 2.74%
- viability at 100 µM [8, 18]: 99 ± 2.72%

Compound: α-bungarotoxin [α-bgt]
- effect on H1299 cell proliferation [1]: no obvious effects on cell proliferation
